The values below come from ChEMBL document CHEMBL2390940, “Synthesis and receptor binding studies of novel 4,4-disubstituted arylalkyl/arylalkylsulfonyl piperazine and piperidine-based derivatives as a new class of σ1 ligands” (Eur J Med Chem, 2013).

Assay [1] can be described thus: Displacement of [3H]DTG from sigma2 receptor in Sprague-Dawley rat liver membrane after 150 mins by liquid scintillation counting analysis. The class given is cell membranes. Background: Displacement assays read how much labelled ligand stays bound in the presence of the test substance.
Assay [2] has as its target Sigma non-opioid intracellular receptor 1 (Cavia porcellus, UniProt Q60492).
The nature of assay [3]: Binding affinity to sigma receptor (unknown origin). On the set-up: species or system Homo sapiens.

Chain of Sigma non-opioid intracellular receptor 1 (Q60492 whole entry): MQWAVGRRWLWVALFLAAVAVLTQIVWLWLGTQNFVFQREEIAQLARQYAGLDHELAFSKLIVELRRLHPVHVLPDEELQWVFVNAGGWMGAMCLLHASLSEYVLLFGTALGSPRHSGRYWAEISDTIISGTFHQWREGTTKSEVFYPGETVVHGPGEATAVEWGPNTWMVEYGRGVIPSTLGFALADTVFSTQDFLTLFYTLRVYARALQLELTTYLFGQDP

As for `O=S(=O)(Cc1cccc(Br)c1)N1CCN(Cc2ccccc2)CC1`, the Ki was determined as 148 nM in assay [1] and 29.9 nM in assay [2]. For `Cc1cccc(CN2CCN(S(=O)(=O)Cc3ccccc3)CC2)c1`, the Ki in assay [1] was found to be 151 nM; in assay [2], 15 nM.

Regarding `Cc1ccccc1NC(=N)Nc1ccccc1C` [DITOLYLGUANIDINE], in assay [1], the affinity corresponds to a Ki of 58.4 nM.

In assay [2], `c1ccc(CCCN2CCN(Cc3ccccc3)CC2)cc1` gave an inhibition constant (Ki) of 20 nM.

`Clc1ccc(/C=C/CN2CCN(Cc3ccccc3)CC2)cc1` displayed an inhibition constant Ki in assay [3] of 0.3 nM. Consider `O=S(=O)(Cc1ccccc1)N1CCN(Cc2cccc(Cl)c2)CC1`, for which the Ki in assay [1] turned out to be 174 nM; in assay [2], 51.8 nM. Regarding `O=S(=O)(Cc1cccc(Cl)c1)N1CCN(Cc2ccccc2)CC1`, the values for the inhibition constant Ki in assay [1] and in assay [2] were 134 nM and 68.1 nM, respectively. On the same counts, the results for `O=S(=O)(Cc1ccccc1)N1CCN(Cc2ccccc2)CC1` are 48.4 nM and 11.2 nM. Turning to `O=S(=O)(Cc1cccc(Br)c1)N1CCC(Cc2ccccc2)CC1`, the inhibition constant (Ki) turned out to be 25.9 nM in assay [1] and 1.6 nM in assay [2].

`O=S(=O)(CCc1ccccc1)N1CCC(Cc2ccccc2)CC1`: in assay [1], affinity was put at a Ki of 187 nM.

For `O=C(CCCN1CCC(O)(c2ccc(Cl)cc2)CC1)c1ccc(F)cc1` [HALOPERIDOL], the affinity in assay [1] corresponds to a Ki of 43.5 nM. As for `O=S(=O)(Cc1ccccc1)N1CCC(Cc2ccccc2)CC1`, the Ki came to 38.9 nM in assay [1] and 9.9 nM in assay [2]. Regarding `O=S(=O)(/C=C/c1ccc(Br)cc1)N1CCN(Cc2ccccc2)CC1`, the Ki in assay [1] turned out to be 485 nM; in assay [2] it was 1080 nM. The like results for `OC[C@@H]1CN(CCc2ccccc2)CCN1Cc1ccccc1` were, in that order, 177 nM and 38 nM. `CC(C)=CCN1CC[C@]2(C)c3cc(O)ccc3C[C@H]1[C@H]2C` [(+)-PENTAZOCINE] yielded a Ki in assay [1] of 1870 nM. With `O=S(=O)(/C=C/c1ccccc1)N1CCN(Cc2ccccc2)CC1`, the Ki is 8140 nM in assay [1] and 201 nM in assay [2]. For `O=S(=O)(/C=C/c1ccc(Br)cc1)N1CCC(Cc2ccccc2)CC1`, the Ki in assay [1] turned out to be 248 nM; in assay [2], 843 nM. With `COc1ccc(CN2CCN(S(=O)(=O)Cc3ccccc3)CC2)cc1`, the Ki came out at 2130 nM in assay [1] and 192 nM in assay [2]. On the same counts, the results for `O=S(=O)(Cc1ccccc1)N1CCN(Cc2cccc(F)c2)CC1` are 181 nM and 68.7 nM. The like results for `Cc1cccc(CS(=O)(=O)N2CCC(Cc3ccccc3)CC2)c1` were, in that order, 48.9 nM and 4.7 nM. On the same counts, the results for `O=S(=O)(c1ccc(Cl)cc1)N1CCN(Cc2ccccc2)CC1` are 1550 nM and 969 nM. As for `O=S(=O)(Cc1ccccc1)N1CCN(Cc2ccc(Br)cc2)CC1`, the figures for the inhibition constant (Ki) in assay [1] and in assay [2] were 288 nM and 13.4 nM, respectively.

For the molecule `Cc1cccc(CS(=O)(=O)N2CCN(Cc3ccccc3)CC2)c1`, the Ki in assay [1] was 89.4 nM; in assay [2], 35.9 nM. The like results for `O=S(=O)(c1ccc(Cl)cc1)N1CCC(Cc2ccccc2)CC1` were, in that order, 778 nM and 551 nM. On the same counts, the results for `O=S(=O)(CCc1ccccc1)N1CCN(Cc2ccccc2)CC1` are 191 nM and 78.4 nM. As to `c1ccc(CN2CCN(Cc3ccccc3)CC2)cc1`, the Ki in assay [1] was 1270 nM.

Consider `O=S(=O)(Cc1cccc(I)c1)N1CCC(Cc2ccccc2)CC1`, for which the inhibitory constant (Ki) was determined as 91.8 nM in assay [1] and 0.96 nM in assay [2]. On the same counts, the results for `O=S(=O)(Cc1cccc(I)c1)N1CCN(Cc2ccccc2)CC1` are 88.8 nM and 2.7 nM. Consider `O=S(=O)(Cc1cccc(Cl)c1)N1CCC(Cc2ccccc2)CC1`, for which the figures for the Ki in assay [1] and in assay [2] were 199 nM and 40 nM, respectively. With `O=S(=O)(c1ccccc1)N1CCN(Cc2ccccc2)CC1`, the Ki in assay [1] turned out to be 87.1 nM; in assay [2], 28.4 nM.

With `O=S(=O)(/C=C/c1ccccc1)N1CCC(Cc2ccccc2)CC1`, the values for the Ki in assay [1] and in assay [2] were 1960 nM and 138 nM, respectively. On the same counts, the results for `O=S(=O)(c1ccccc1)N1CCC(Cc2ccccc2)CC1` are 56.7 nM and 24.3 nM. `O=S(=O)(Cc1ccccc1)N1CCN(Cc2cccc(I)c2)CC1`: the values for the Ki in assay [1] and in assay [2] were 117 nM and 1.8 nM, respectively. Take `c1ccc(CCCN2CCC(Cc3ccccc3)CC2)cc1`: the inhibition constant Ki in assay [1] was 3.3 nM; in assay [2], 0.4 nM.

A word on the Ki: it is a measure of affinity in units of concentration, obtained from inhibition or displacement. A high value points to weaker binding.
